Experiment [1] relates to Porphyromonas Gingivalis and Prevotella Intermedia. As to the kind of experiment: Lethal photosensitization of oral pathogens in vitro, colony count after methylene blue stain and red-filtered halogen light. In kind it is cell-based. Here is the method:
Suitable stain dosages for providing lethal sensitization of oral pathogens are determined in vitro by the following procedure. An objective is to determine the minimum duration of light exposure and minimum agent dilution required to achieve at least a 50% reduction in bacteria counts. Experimental tests are performed on two common pathogens using a continuously working, high intensity, red filtered halogen lamp. Red light from the filtered halogen lamp is transmitted through a flexible light guide to radiate downwardly onto petri dishes containing samples of live bacteria of species Porphyromonas Gingivalis and Prevotella Intermedia using the protocols described below.
(§1) Bacteria. Prevotella Intermedia is isolated from patient sample material, identified in the laboratory using standard diagnostic test systems (Remel Inc., Lenexa, Kans., USA) and is maintained by twice-weekly subculture in thioglycollate medium (Becton Dickinson and Co, Sparks, Md., USA). P. gingivalis ATCC 33277 obtained from Remel Inc., is maintained by a twice-weekly subculture on CDC anaerobe blood agar (Becton Dickinson and Co, USA) and in thioglycollate medium (Becton Dickinson and Co, USA).
(§2) Light Source. The source for light energy is a continuously working, high intensity halogen lamp having a built-in 250-Watt quartz halogen light source, model 1-250 supplied by Medithon, New York, N.Y., USA. Such lights are customarily employed for ear, nose or throat procedures. The light is transmitted through a flexible light guide and filtered to maintain maximum energy output at wavelengths in the vicinity of about 650 nm using a broadband red filter (Edmund Optics Inc., Barrington, N.J., USA). The light output power density measured at 3 cm distance from the end of the light guide with filter is about 50 milliwatts/cm2.
Photosensitizer. […] Serial dilutions with water of initial solution with respective concentrations of 0.1%, 0.075%, 0.05%, 0.025% and 0.01% are prepared from the initial solution using sterile 10-ml bottles of normal saline and sterile syringes.
Lethal photosensitization of P. Intermedia. Petri dishes containing CDC anaerobe blood agar (Becton Dickinson and Co, USA) are inoculated with 0.5 ml of broth containing 5×10^5 CFU/ml and left closed at room temperature for about 10 minutes to let the broth penetrate the agar media. […] Only plates with concentrations of 0.01%, and 0.025% are used in the experiment with 20 min light exposure. Four plates are used for each experiment. […] The controls are covered to protect them from ambient light. […] A total of 108 subcultures is used for the experiment. Plates are incubated in anaerobic conditions in the jars using anaerobic pack kits (BBL GasPak Plus, Becton Dickinson and Co, Sparks, Md., USA) at 37° C. for 24 hours. Samples of the resulting culture growth are taken from each plate with sterile […] standard loop, dispensed in 1 ml of sterile NS and placed at the same media. Cultures are incubated at anaerobic conditions at 37° C. for another 24 hours, and after that the resulting colony count is performed on each plate.
Lethal photosensitization of P. Gingivalis. Serial dilutions of the P. gingivalis culture are prepared from the initial culture preserved on plates using 1:L sterile standard loop (Becton Dickinson and Co, USA) and sterile NS. AVitek calorimeter (Hach Company, Loveland, Colo., USA) is used to achieve a final concentration of about 5×10^3 CFU/ml from an initial 0.5 standard McFarland suspension of 10^8 CFU/ml. Plates containing CDC anaerobic blood agar (Becton Dickinson and Co, USA) are inoculated with the resulting suspension using sterile 10:L standard loops (Becton Dickinson and Co, USA). […] Plates are also incubated at 37° C. in the tightly closed jars supplied with anaerobic pack kits (BBL GasPak Plus, Becton Dickinson and Co, USA) for 24 hours, and the resulting colony count is performed on each plate.
Statistical analyses can be carried out using single-factor analysis of variance.

In the next experiment the test system is P. gingivalis ATCC 33277. As to the kind of experiment: Lethal photosensitization of P. Gingivalis, colony count. In kind it is cell-based, Porphyromonas Gingivalis.
Excerpt: as §1, §2
Photosensitizer. […] Serial dilutions with water of initial solution with respective concentrations of 0.1%, 0.075%, 0.05%, 0.025% and 0.01% are prepared from the initial solution using sterile 10-ml bottles of normal saline and sterile syringes. […]

Experiment [2] deals with Porphyromonas Gingivalis and Prevotella Intermedia. As to the kind of experiment: Lethal photosensitization of oral pathogens in vitro, colony count after methylene blue stain and red-filtered halogen light. The conditions noted are these: methylene blue 0.001% or 0.025%, without halogen light. In kind it is cell-based.
For another experiment, the system named is Candida albicans. The conditions noted are these: MB 450 and 500 microgram/mL, diode laser light 664 nm, 275 J/cm fiber length, 400 mW, 687.5 seconds, immunosuppressed murine model; cited from earlier work.
The next experiment has as its system E. Coli. The conditions noted are these: gram negative (E. Coli); cited from earlier work.
For a further experiment, the system named is Staph aureus. The note with it: gram positive (Staph aureus); cited from earlier work.

Structures are written as SMILES. Entries after “also recorded” stand apart in the source; their conditions may differ.

On to `CN(C)c1ccc2nc3ccc(=[N+](C)C)cc-3sc2c1` [methylene blue], for which the Reduction of bacteria result in experiment [1] (0.05% methylene blue alone, without exposure to light) is “insignificant”. The “difference between exposure for 10 and 20 minutes” value in experiment [1] (either species, any concentration of methylene blue) is “No statistically significant difference”. For the same molecule, the “reduction in bacteria counts” value in experiment [1] (light exposure 1 min, methylene blue 0.05% and higher) was “Significant reduction in bacteria counts”; in experiment [1] (light exposure 5 min, methylene blue 0.025%) it was “Significant reduction in bacteria counts”. In addition, the bactericidal effect result is on record as “bactericidal effect” in experiment [1] (methylene blue 0.01% or higher with red-filtered high-intensity light, exposure less than 10 minutes, accumulated energy 30 J/cm^2); “significant bactericidal effect; also recorded: significantly bactericidal” in experiment [1] (methylene blue 0.075% and 0.1%, without light exposure); “bactericidal effect” with P. gingivalis ATCC 33277 (methylene blue 0.1%, P. gingivalis). Besides, the “killing with duration of light exposure” value in experiment [1] (methylene blue 0.025%, time intervals 5 and 10 min, both cultures) is on record as “statistically significant increased killing with duration”; in experiment [1] (methylene blue 0.05%, time intervals 1 min, 5 min and 10 min, both cultures) it was “statistically significant increased killing with duration”. In addition, in experiment [1] (methylene blue 0.075% and 0.1%, light exposure 1 min, both cultures), the bacterial count reduction result is “statistically significant bacterial count reduction”. In addition, the bacterial killing entry with P. gingivalis ATCC 33277 (methylene blue 0.01%, without light exposure, P. gingivalis culture) is given as “statistically significant bacterial killing”. Further, the killing bacteria entry in experiment [2] is recorded as “nor concentrations of methylene blue of 0.001% or 0.025%, without halogen light, appeared to be effective in killing bacteria”. The “eradication of Candida albicans” value in the experiment on Candida albicans is on record as “totally eradicate”. Further, the phototoxicity result in the experiment on E. Coli and in the experiment with Staph aureus was “bacterial cell death” throughout.
On to `Cc1cc2nc3ccc(N(C)C)cc3[s+]c2cc1N.[Cl-]` [toluidine blue 0], for which the phototoxicity entry in the experiment with E. Coli and with Staph aureus was “bacterial cell death” each time.
